Assays:
[1] = tested on: Schoenoplectiella juncoides; test: Herbicidal activity against Schoenoplectiella juncoides at 200 g a.i/ha treated at 1.6-leaf stage measured after 26 days by outdoor concrete pot test; assay type: functional
[2] = tested on: Pontederia vaginalis; test: Herbicidal activity against Monochoria vaginalis at 300 g a.i/ha treated at 2.3-leaf stage measured after 26 days by outdoor concrete pot test; assay type: functional
[3] = tested on: Echinochloa oryzicola; test: Herbicidal activity against Echinochloa oryzicola under greenhouse condition compound treated at emergence stage measured after 14 to 20 days; assay type: functional
[4] = tested on: Rotala indica; test: Herbicidal activity against Rotala indica at 200 g a.i/ha treated at 1.6-leaf stage measured after 26 days by outdoor concrete pot test; assay type: functional
[5] = tested on: Schoenoplectiella juncoides; test: Herbicidal activity against Schoenoplectiella juncoides under greenhouse condition compound treated at 0.5 leaf stage measured after 14 to 20 days; assay type: functional
[6] = tested on: Schoenoplectiella juncoides; test: Herbicidal activity against Schoenoplectiella juncoides at 200 g a.i/ha treated at 2.3-leaf stage measured after 26 days by outdoor concrete pot test; assay type: functional
[7] = tested on: Lindernia procumbens; test: Herbicidal activity against Lindernia procumbens at 200 g a.i/ha treated at 1.6-leaf stage measured after 26 days by outdoor concrete pot test; assay type: functional
[8] = tested on: Echinochloa oryzicola; test: Herbicidal activity against Echinochloa oryzicola at 200 g a.i/ha treated at 2.3-leaf stage measured after 26 days by outdoor concrete pot test; assay type: functional
[9] = tested on: Rotala indica; test: Herbicidal activity against Rotala indica at 100 g a.i/ha treated at emergence stage measured after 26 days by outdoor concrete pot test; assay type: functional
[10] = tested on: Oryza sativa; test: Phytotoxicity against Oryza sativa cv. Kinuhikari (rice) at 100 g a.i/ha treated at emergence stage measured after 26 days by outdoor concrete pot test; assay type: organism-based; details: in vivo, other, 624 h
[11] = tested on: Oryza sativa; test: Phytotoxicity against Oryza sativa cv. Kinuhikari (rice) at 100 g a.i/ha treated at 1.6-leaf stage measured after 26 days by outdoor concrete pot test; assay type: organism-based; details: in vivo, other, 624 h
[12] = tested on: Elatine triandra; test: Herbicidal activity against Elatine triandra at 200 g a.i/ha treated at 1.6-leaf stage measured after 26 days by outdoor concrete pot test; assay type: functional
[13] = tested on: Lindernia procumbens; test: Herbicidal activity against Lindernia procumbens at 200 g a.i/ha treated at 2.3-leaf stage measured after 26 days by outdoor concrete pot test; assay type: functional
[14] = tested on: Elatine triandra; test: Herbicidal activity against Elatine triandra at 200 g a.i/ha treated at 2.3-leaf stage measured after 26 days by outdoor concrete pot test; assay type: functional
[15] = tested on: Oryza sativa; test: Phytotoxicity against Oryza sativa cv. Kinuhikari (rice) planted at 3 cm depth measured after 20 to 25 days; assay type: organism-based; details: in vivo
[16] = tested on: Pontederia vaginalis; test: Herbicidal activity against Monochoria vaginalis at 100 g a.i/ha treated at emergence stage measured after 26 days by outdoor concrete pot test; assay type: functional
[17] = tested on: Lindernia procumbens; test: Herbicidal activity against Lindernia procumbens at 300 g a.i/ha treated at 2.3-leaf stage measured after 26 days by outdoor concrete pot test; assay type: functional
[18] = tested on: Elatine triandra; test: Herbicidal activity against Elatine triandra compound treated at 1 to 2.2-leaf stage measured after 26 days by outdoor concrete pot test; assay type: functional
[19] = tested on: Oryza sativa; test: Phytotoxicity against Oryza sativa cv. Kinuhikari (rice) planted at 3 cm depth measured after 26 days; assay type: organism-based; details: in vivo, 624 h
[20] = tested on: Elatine triandra; test: Herbicidal activity against Elatine triandra at 200 g a.i/ha treated at emergence stage measured after 26 days by outdoor concrete pot test; assay type: functional
[21] = tested on: Rotala indica; test: Herbicidal activity against Rotala indica at 100 g a.i/ha treated at 1.6-leaf stage measured after 26 days by outdoor concrete pot test; assay type: functional
[22] = tested on: Oryza sativa; test: Phytotoxicity against Oryza sativa cv. Kinuhikari (rice) at 200 g a.i/ha treated at emergence stage measured after 26 days by outdoor concrete pot test; assay type: organism-based; details: in vivo, other, 624 h
[23] = tested on: Echinochloa oryzicola; test: Herbicidal activity against Echinochloa oryzicola at 200 g a.i/ha treated at 1.6-leaf stage measured after 26 days by outdoor concrete pot test; assay type: functional
[24] = tested on: Schoenoplectiella juncoides; test: Herbicidal activity against Schoenoplectiella juncoides at 300 g a.i/ha treated at 2.3-leaf stage measured after 26 days by outdoor concrete pot test; assay type: functional
[25] = tested on: Oryza sativa; test: Phytotoxicity against Oryza sativa cv. Kinuhikari (rice) at 300 g a.i/ha treated at 2.3-leaf stage measured after 26 days by outdoor concrete pot test; assay type: organism-based; details: in vivo, other, 624 h
[26] = tested on: Schoenoplectiella juncoides; test: Herbicidal activity against Schoenoplectiella juncoides at 100 g a.i/ha treated at 1.6-leaf stage measured after 26 days by outdoor concrete pot test; assay type: functional
[27] = tested on: Schoenoplectiella juncoides; test: Herbicidal activity against Schoenoplectiella juncoides at 200 g a.i/ha treated at emergence stage measured after 26 days by outdoor concrete pot test; assay type: functional
[28] = tested on: Rotala indica; test: Herbicidal activity against Rotala indica at 300 g a.i/ha treated at 2.3-leaf stage measured after 26 days by outdoor concrete pot test; assay type: functional
[29] = tested on: Echinochloa oryzicola; test: Herbicidal activity against Echinochloa oryzicola at 100 g a.i/ha treated at 1.6-leaf stage measured after 26 days by outdoor concrete pot test; assay type: functional
[30] = tested on: Rotala indica; test: Herbicidal activity against Rotala indica at 200 g a.i/ha treated at 2.3-leaf stage measured after 26 days by outdoor concrete pot test; assay type: functional
[31] = tested on: Echinochloa oryzicola; test: Herbicidal activity against Echinochloa oryzicola at 100 g a.i/ha treated at emergence stage measured after 26 days by outdoor concrete pot test; assay type: functional
[32] = tested on: Echinochloa oryzicola; test: Herbicidal activity against Echinochloa oryzicola under greenhouse condition compound treated at 2.5 leaf stage measured after 14 to 20 days; assay type: functional
[33] = tested on: Schoenoplectiella juncoides; test: Herbicidal activity against Schoenoplectiella juncoides at 100 g a.i/ha treated at emergence stage measured after 26 days by outdoor concrete pot test; assay type: functional
[34] = tested on: Elatine triandra; test: Herbicidal activity against Elatine triandra at 300 g a.i/ha treated at 2.3-leaf stage measured after 26 days by outdoor concrete pot test; assay type: functional
[35] = tested on: Oryza sativa; test: Phytotoxicity against Oryza sativa cv. Kinuhikari (rice) at 200 g a.i/ha treated at 1.6-leaf stage measured after 26 days by outdoor concrete pot test; assay type: organism-based; details: in vivo, other, 624 h
[36] = tested on: Pontederia vaginalis; test: Herbicidal activity against Monochoria vaginalis at 200 g a.i/ha treated at emergence stage measured after 26 days by outdoor concrete pot test; assay type: functional
[37] = tested on: Lindernia procumbens; test: Herbicidal activity against Lindernia procumbens compound treated at 1 to 2.2-leaf stage measured after 26 days by outdoor concrete pot test; assay type: functional
[38] = tested on: Lindernia procumbens; test: Herbicidal activity against Lindernia procumbens at 100 g a.i/ha treated at emergence stage measured after 26 days by outdoor concrete pot test; assay type: functional
[39] = tested on: Lindernia procumbens; test: Herbicidal activity against Lindernia procumbens at 200 g a.i/ha treated at emergence stage measured after 26 days by outdoor concrete pot test; assay type: functional
[40] = tested on: Pontederia vaginalis; test: Herbicidal activity against Monochoria vaginalis at 200 g a.i/ha treated at 2.3-leaf stage measured after 26 days by outdoor concrete pot test; assay type: functional
[41] = tested on: Rotala indica; test: Herbicidal activity against Rotala indica at 200 g a.i/ha treated at emergence stage measured after 26 days by outdoor concrete pot test; assay type: functional
[42] = tested on: Oryza sativa; test: Phytotoxicity against Oryza sativa cv. Kinuhikari (rice) at 200 g a.i/ha treated at 2.3-leaf stage measured after 26 days by outdoor concrete pot test; assay type: organism-based; details: in vivo, other, 624 h
[43] = tested on: Elatine triandra; test: Herbicidal activity against Elatine triandra at 100 g a.i/ha treated at 1.6-leaf stage measured after 26 days by outdoor concrete pot test; assay type: functional
[44] = tested on: Echinochloa oryzicola; test: Herbicidal activity against Echinochloa oryzicola compound treated at emergence stage measured after 26 days by outdoor concrete pot test; assay type: functional
[45] = tested on: Echinochloa oryzicola; test: Herbicidal activity against Echinochloa oryzicola at 200 g a.i/ha treated at emergence stage measured after 26 days by outdoor concrete pot test; assay type: functional
[46] = tested on: Echinochloa oryzicola; test: Herbicidal activity against Echinochloa oryzicola at 300 g a.i/ha treated at 2.3-leaf stage measured after 26 days by outdoor concrete pot test; assay type: functional
[47] = tested on: Lindernia procumbens; test: Herbicidal activity against Lindernia procumbens at 100 g a.i/ha treated at 1.6-leaf stage measured after 26 days by outdoor concrete pot test; assay type: functional
[48] = tested on: Pontederia vaginalis; test: Herbicidal activity against Monochoria vaginalis at 100 g a.i/ha treated at 1.6-leaf stage measured after 26 days by outdoor concrete pot test; assay type: functional
[49] = tested on: Elatine triandra; test: Herbicidal activity against Elatine triandra at 100 g a.i/ha treated at emergence stage measured after 26 days by outdoor concrete pot test; assay type: functional
[50] = tested on: Rotala indica; test: Herbicidal activity against Rotala indica compound treated at 1 to 2.2-leaf stage measured after 26 days by outdoor concrete pot test; assay type: functional
[51] = tested on: Schoenoplectiella juncoides; test: Herbicidal activity against Schoenoplectiella juncoides compound treated at 0.5-leaf stage measured after 26 days by outdoor concrete pot test; assay type: functional
[52] = tested on: Echinochloa oryzicola; test: Herbicidal activity against Echinochloa oryzicola compound treated at 2.5-leaf stage measured after 26 days by outdoor concrete pot test; assay type: functional
[53] = tested on: Pontederia vaginalis; test: Herbicidal activity against Monochoria vaginalis at 200 g a.i/ha treated at 1.6-leaf stage measured after 26 days by outdoor concrete pot test; assay type: functional

`CN(C)C(=O)OC(c1cnccc1C(F)(F)F)c1cccc2ccccc12` (racemic) showed an Efficacy [1] of 0%, an Efficacy [2] of 100% and an ED80 [3] of 31 gAi/ha. For the same compound, the Efficacy [4] was 100%, the ED80 [5] was 250 gAi/ha and the Efficacy [6] was 0%. The Efficacy [7] was 100%, the Efficacy [8] was 95% and the Efficacy [9] was 100%. For the same compound, the Efficacy [10] was 11%, the Efficacy [11] was 0% and the Efficacy [12] was 100%. The Efficacy [13] was 100%, the Efficacy [14] was 100% and the ED20 [15] was 2000 gAi/ha. The Efficacy [16] was 100%, the Efficacy [17] was 100% and the ED80 [18] was 100 gAi/ha. For the same compound, the ED20 [19] was 2000 gAi/ha, the Efficacy [20] was 100% and the Efficacy [21] was 100%. For the same compound, the Efficacy [22] was 16%, the Efficacy [23] was 95% and the Efficacy [24] was 0%. It also gave an Efficacy [25] of 6%, an Efficacy [26] of 0% and an Efficacy [27] of 0%. The Efficacy [28] was 100%, the Efficacy [29] was 95% and the Efficacy [30] was 100%. The Efficacy [31] was 100%, the ED80 [32] was 125 gAi/ha and the Efficacy [33] was 0%. For the same compound, the Efficacy [34] was 100%, the Efficacy [35] was 0% and the Efficacy [36] was 100%. For the same compound, the ED80 [37] was 100 gAi/ha, the Efficacy [38] was 100% and the Efficacy [39] was 100%. The Efficacy [40] was 99%, the Efficacy [41] was 100% and the Efficacy [42] was 0%. The Efficacy [43] was 100%, the ED80 [44] was 31 gAi/ha and the Efficacy [45] was 100%. The Efficacy [46] was 95%, the Efficacy [47] was 100% and the Efficacy [48] was 89%. It also gave an Efficacy [49] of 100%, an ED80 [50] of 100 gAi/ha and an ED80 [51] of 250 gAi/ha. For the same compound, the ED80 [52] was 125 gAi/ha and the Efficacy [53] was 100%.
